Assay results as given in patent US11254686B1 (Corvus Pharmaceuticals, Inc., priority 2017, dated 2022).
pIC50: −log10 of the molar value. Where two headings read alike, the source gives them in different places.

Tests used:
[1] = Hepatocyte (Hep) intrinsic clearance, rat; assay type: in vitro ADME; conditions: hepatocytes
[2] = Hepatocyte (Hep) intrinsic clearance, human; assay type: in vitro ADME; conditions: hepatocytes
adenosine A3 receptor [3] = target: T1, adenosine A3 receptor (Homo sapiens (Human), UniProt P0DMS8); test: A3 cAMP IC50 assay (Table 1); assay type: biochemical
adenosine A2B receptor = adenosine A2B receptor (Homo sapiens (Human), UniProt P29275); test: Adenosine receptor activity assay (Table 1), A2B activity; assay type: biochemical; conditions: for pIC50: read-out: Ave A2B cAMP IC50
adenosine A1 receptor [4] = target: T2, adenosine A1 receptor (Homo sapiens (Human), UniProt P30542); test: A1 cAMP IC50 assay (Table 1); assay type: biochemical
CYP3A4 = CYP3A4 (Homo sapiens (Human), UniProt P08684); test: CYP450 inhibition at 10 μM, CYP3A4; assay type: in vitro ADME; conditions: human, 10 μM, read-out: CYP 450 % INH @ 10 μM
adenosine A2A receptor = adenosine A2A receptor (Homo sapiens (Human), UniProt P29274); test: Adenosine receptor activity assay (Table 1), A2A activity; assay type: biochemical; conditions: read-out: Ave A2A cAMP IC50
adenosine A1 receptor [5] = target: T2, adenosine A1 receptor; test: Adenosine receptor activity assay (Table 1), A1 cAMP; assay type: biochemical
adenosine A3 receptor [6] = target: T1, adenosine A3 receptor; test: Adenosine receptor activity assay (Table 1), A3 cAMP; assay type: biochemical
[7] = A2A activity to A2B activity (A2A/A2B)
[8] = A2A activity to the A2B activity, A2A/A2B

Chain of adenosine A2A receptor (P29274 whole entry): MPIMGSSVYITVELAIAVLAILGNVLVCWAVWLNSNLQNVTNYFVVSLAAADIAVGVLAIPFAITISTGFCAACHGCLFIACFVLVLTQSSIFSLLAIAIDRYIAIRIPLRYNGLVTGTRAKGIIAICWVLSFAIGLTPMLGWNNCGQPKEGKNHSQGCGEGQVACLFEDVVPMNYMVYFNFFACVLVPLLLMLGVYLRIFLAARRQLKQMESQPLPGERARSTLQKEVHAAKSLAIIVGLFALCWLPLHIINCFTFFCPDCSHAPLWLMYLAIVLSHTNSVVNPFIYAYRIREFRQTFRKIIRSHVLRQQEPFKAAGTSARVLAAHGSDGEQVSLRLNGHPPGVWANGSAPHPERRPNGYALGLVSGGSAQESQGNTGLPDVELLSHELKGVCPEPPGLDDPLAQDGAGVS
Chain of adenosine A2B receptor (P29275 whole entry): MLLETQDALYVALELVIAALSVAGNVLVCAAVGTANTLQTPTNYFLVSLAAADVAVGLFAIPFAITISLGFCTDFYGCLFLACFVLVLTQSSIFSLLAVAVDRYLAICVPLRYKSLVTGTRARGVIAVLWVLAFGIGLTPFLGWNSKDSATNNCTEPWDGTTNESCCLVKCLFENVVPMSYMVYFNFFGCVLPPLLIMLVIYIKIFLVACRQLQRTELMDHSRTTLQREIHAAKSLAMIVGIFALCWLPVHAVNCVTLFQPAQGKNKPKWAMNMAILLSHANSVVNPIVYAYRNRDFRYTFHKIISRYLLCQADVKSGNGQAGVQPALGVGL
T2 sequence (P30542 whole entry): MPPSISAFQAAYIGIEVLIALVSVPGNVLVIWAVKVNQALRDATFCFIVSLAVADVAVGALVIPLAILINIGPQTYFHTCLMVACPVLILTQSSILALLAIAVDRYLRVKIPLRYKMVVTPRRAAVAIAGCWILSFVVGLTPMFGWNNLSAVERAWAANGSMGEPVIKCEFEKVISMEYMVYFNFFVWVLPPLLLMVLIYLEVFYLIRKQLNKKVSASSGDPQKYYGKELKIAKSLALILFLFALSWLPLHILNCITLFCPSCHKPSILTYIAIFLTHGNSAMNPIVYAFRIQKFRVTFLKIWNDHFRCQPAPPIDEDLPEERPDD
T1 sequence (P0DMS8 whole entry): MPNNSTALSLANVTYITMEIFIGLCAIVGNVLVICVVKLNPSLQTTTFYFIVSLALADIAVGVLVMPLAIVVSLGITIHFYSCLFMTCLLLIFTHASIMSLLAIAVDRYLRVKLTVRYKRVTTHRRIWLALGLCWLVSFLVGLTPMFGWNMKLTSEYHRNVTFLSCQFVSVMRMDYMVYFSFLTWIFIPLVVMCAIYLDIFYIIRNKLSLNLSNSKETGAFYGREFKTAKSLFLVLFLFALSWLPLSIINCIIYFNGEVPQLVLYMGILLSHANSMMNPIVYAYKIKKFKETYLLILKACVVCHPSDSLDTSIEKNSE
Chain of CYP3A4 (P08684 whole entry): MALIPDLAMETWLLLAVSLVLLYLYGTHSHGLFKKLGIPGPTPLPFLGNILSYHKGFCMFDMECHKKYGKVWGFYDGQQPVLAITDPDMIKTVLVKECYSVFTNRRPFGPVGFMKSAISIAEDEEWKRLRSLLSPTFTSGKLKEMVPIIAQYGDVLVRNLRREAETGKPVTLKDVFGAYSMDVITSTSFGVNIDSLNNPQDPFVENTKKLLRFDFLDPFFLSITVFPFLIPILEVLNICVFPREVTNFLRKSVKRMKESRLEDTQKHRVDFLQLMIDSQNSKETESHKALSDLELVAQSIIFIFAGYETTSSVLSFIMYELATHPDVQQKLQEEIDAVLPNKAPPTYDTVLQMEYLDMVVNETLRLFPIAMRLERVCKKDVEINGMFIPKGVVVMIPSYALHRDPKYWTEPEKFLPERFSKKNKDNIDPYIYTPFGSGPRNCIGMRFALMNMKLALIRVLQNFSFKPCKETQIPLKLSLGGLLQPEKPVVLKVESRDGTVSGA

Row | Structure (SMILES) | hepatocyte CLint [1] [µL/min/1e6 cells] | hepatocyte CLint [2] [µL/min/1e6 cells] | pIC50 (adenosine A3 receptor [3]) | Ratio (adenosine A2B receptor; [7]) | pIC50 (adenosine A2B receptor) | pIC50 (adenosine A1 receptor [4]) | inhibition at 10 µM (CYP3A4) [%] | pIC50 (adenosine A2A receptor) | pIC50 (adenosine A2A receptor; cAMP) | Ratio (adenosine A2B receptor; [8]) | pIC50 (adenosine A2B receptor; cAMP) | pIC50 (adenosine A1 receptor [5]) | pIC50 (adenosine A3 receptor [6])
1 | COC1CN(C(=O)c2nc(N[C@@H](C)c3ccccn3)nc3ccsc23)C1 [Example Z108, (S)-(3-Methoxyazetidin-1-yl)(2-((1-(pyridin-2-yl)ethyl)amino)thieno[3,2-d]pyrimidin-4-yl)methanone] | 23.4 | 5.66 | < 6.30 | 10.93 | 7.30 to 8.00 | < 6.30 | 31 |  |  |  |  |  | 
2 | C[C@H](Nc1nc(C(=O)N2CC(F)(F)C2)c2sccc2n1)c1ccccn1 [Example Z92, (S)-(3,3-Difluoroazetidin-1-yl)(2-((1-(pyridin-2-yl)ethyl)amino)thieno[3,2-d]pyrimidin-4-yl)methanone] | 46.5 | 45.2 | < 6.30 | 10.92 | 7.30 to 8.00 | < 6.30 | 0 | 6.30 to 7.00 |  |  |  |  | 
3 | C[C@H]1CCN(C(=O)c2nc(N[C@@H](C)c3ccccn3)nc3ccsc23)C1 [Example Z87, ((S)-3-Methylpyrrolidin-1-yl)(2-(((S)-1-(pyridin-2-yl)ethyl)amino)thieno[3,2-d]pyrimidin-4-yl)methanone] | 57.6 | 13.3 | < 6.30 | 11.70 | 7.30 to 8.00 | < 6.30 | 19.9 | 6.30 to 7.00 |  |  |  |  | 
4 | COC1CN(C(=O)c2nc(NCc3cncc(F)c3)nc3ccsc23)C1 [Example Z115, (2-(((5-Fluoropyridin-3-yl)methyl)amino)thieno[3,2-d]pyrimidin-4-yl)(3-methoxyazetidin-1-yl)methanone] | 51.7 | 13.9 | < 6.30 | 71.92 | > 8.00 | < 6.30 | 75 | 6.30 to 7.00 |  |  |  |  | 
5 | C[C@H](Nc1nc(C(=O)N2CC(O)C2)c2sccc2n1)c1ccccn1 [Example Z100, (S)-(3-Hydroxyazetidin-1-yl)(2-((1-(pyridin-2-yl)ethyl)amino)thieno[3,2-d]pyrimidin-4-yl)methanone] | 22.2 | 1.89 | < 6.30 | 11.09 | 7.30 to 8.00 | < 6.30 | 7.65 | 6.30 to 7.00 |  |  |  |  | 
6 | O=C(c1nc(NCc2cncc(F)c2)nc2ccsc12)N1CC(O)C1 [Example Z109, (2-(((5-Fluoropyridin-3-yl)methyl)amino)thieno[3,2-d]pyrimidin-4-yl)(3-hydroxyazetidin-1-yl)methanone] | 19.9 | 4.11 | < 6.30 | 68.08 | > 8.00 | < 6.30 | 28.4 | < 6.30 |  |  |  |  | 
7 | C[C@H](Nc1nc(C(=O)N2CCC2)c2sccc2n1)c1ccccn1 [Example Z90, (S)-Azetidin-1-yl(2-((1-(pyridin-2-yl)ethyl)amino)thieno[3,2-d]pyrimidin-4-yl)methanone] | 33.3 | 6.32 | < 6.30 | 18.88 | > 8.00 | < 6.30 | 0 | 7.00 to 7.30 |  |  |  |  | 
8 | O=C(c1nc(NCc2cncc(F)c2)nc2ccsc12)N1CC[C@H](F)C1 [Example Z99, (S)-(2-(((5-Fluoropyridin-3-yl)methyl)amino)thieno[3,2-d]pyrimidin-4-yl)(3-fluoropyrrolidin-1-yl)methanone] | 65.3 | 21.1 | < 6.30 | 37.02 | 7.30 to 8.00 | < 6.30 | 48.9 | < 6.30 |  |  |  |  | 
9 | C[C@H](Nc1nc(C(=O)N2CC(NC(=O)CCC3CCOCC3)C2)c2sccc2n1)c1cncc(F)c1 [Example Z612, (S)—N-(1-(2-((1-(5-Fluoropyridin-3-yl)ethyl)amino)thieno[3,2-d]pyrimidine-4-carbonyl)azetidin-3-yl)-3-(tetrahydro-2H-pyran-4-yl)propanamide] |  |  |  |  |  |  |  |  | 7.30 to 8.00 | 1.02 | 7.30 to 8.00 | < 6.30 | 6.30 to 7.00
10 | C[C@H](Nc1nc(C(=O)N2CCC(F)(F)C2)c2sccc2n1)c1ccccn1 [Example Z96, (S)-(3,3-Difluoropyrrolidin-1-yl)(2-((1-(pyridin-2-yl)ethyl)amino)thieno[3,2-d]pyrimidin-4-yl)methanone] | 40.7 | 16.8 | < 6.30 | 5.59 | 7.30 to 8.00 | < 6.30 | 0 | 6.30 to 7.00 |  |  |  |  | 
11 | C[C@H](Nc1nc(C(=O)N2CC(NC(=O)C34CCC(CC3)CC4)C2)c2sccc2n1)c1cncc(F)c1 [Example Z637, (S)—N-(1-(2-((1-(5-Fluoropyridin-3-yl)ethyl)amino)thieno[3,2-d]pyrimidine-4-carbonyl)azetidin-3-yl)bicyclo[2.2.2]octane-1-carboxamide] |  |  |  |  |  |  |  |  | > 8.00 | 0.13 | 7.30 to 8.00 | < 6.30 | 7.30 to 8.00
12 | Cc1cccc(C(=O)NC2CN(C(=O)c3nc(N[C@@H](C)c4cncc(F)c4)nc4ccsc34)C2)c1 [Example Z626, (S)—N-(1-(2-((1-(5-Fluoropyridin-3-yl)ethyl)amino)thieno[3,2-d]pyrimidine-4-carbonyl)azetidin-3-yl)-3-methylbenzamide] |  |  |  |  |  |  |  |  | > 8.00 | 0.85 | 7.30 to 8.00 | < 6.30 | 6.30 to 7.00
13 | C[C@H](Nc1nc(C(=O)N2CC(NC(=O)C3(C)CC3)C2)c2sccc2n1)c1cncc(Cl)c1 [Example Z641, (S)—N-(1-(2-((1-(5-Chloropyridin-3-yl)ethyl)amino)thieno[3,2-d]pyrimidine-4-carbonyl)azetidin-3-yl)-1-methylcyclopropane-1-carboxamide] |  |  |  |  |  |  |  |  | 7.30 to 8.00 | 1.81 | > 8.00 | < 6.30 | 6.30 to 7.00
14 | O=C(c1nc(NCc2cccc(Cl)c2)nc2ccsc12)N1CC(O)C1 [Example Z122, (2-((3-Chlorobenzyl)amino)thieno[3,2-d]pyrimidin-4-yl)(3-hydroxyazetidin-1-yl)methanone] | 112 | 68.4 |  |  | 7.30 to 8.00 |  | 22.9 | 6.30 to 7.00 |  |  |  |  | 
15 | C[C@H](Nc1nc(C(=O)N2CC[C@@H](C(=O)NOC3CCCC3)C2)c2sccc2n1)c1cncc(F)c1 [Example Z628, (R)—N-(Cyclopentyloxy)-1-(2-(((S)-1-(5-fluoropyridin-3-yl)ethyl)amino)thieno[3,2-d]pyrimidine-4-carbonyl)pyrrolidine-3-carboxamide] |  |  |  |  |  |  |  |  | > 8.00 | 1.25 | > 8.00 | < 6.30 | 6.30 to 7.00
16 | C[C@H](Nc1nc(C(=O)N2CC(NC(=O)NC(C)(C)C)C2)c2sccc2n1)c1cncc(F)c1 [Example Z611, (S)-1-(tert-Butyl)-3-(1-(2-((1-(5-fluoropyridin-3-yl)ethyl)amino)thieno[3,2-d]pyrimidine-4-carbonyl)azetidin-3-yl)urea] |  |  |  |  |  |  |  |  | > 8.00 | 0.80 | > 8.00 | < 6.30 | 6.30 to 7.00
17 | C[C@H](Nc1nc(C(=O)N2CC(NC(=O)c3ccccc3F)C2)c2sccc2n1)c1cncc(F)c1 [Example Z614, (S)-2-Fluoro-N-(1-(2-((1-(5-fluoropyridin-3-yl)ethyl)amino)thieno[3,2-d]pyrimidine-4-carbonyl)azetidin-3-yl)benzamide] |  |  |  |  |  |  |  |  | > 8.00 | 1.76 | > 8.00 | < 6.30 | 6.30 to 7.00
18 | Cc1ncccc1CNc1nc(C(=O)N2CCCC2)c2sccc2n1 [Example Z91, (2-(((2-Methylpyridin-3-yl)methyl)amino)thieno[3,2-d]pyrimidin-4-yl)(pyrrolidin-1-yl)methanone] | 47.1 | 7.19 |  | 16.69 | 7.30 to 8.00 |  | 19 | 6.30 to 7.00 |  |  |  |  | 
19 | C[C@H](Nc1nc(C(=O)N2CC(NC(=O)C3(C#N)CC3)C2)c2sccc2n1)c1cncc(F)c1 [Example Z636, (S)-1-Cyano-N-(1-(2-((1-(5-fluoropyridin-3-yl)ethyl)amino)thieno[3,2-d]pyrimidine-4-carbonyl)azetidin-3-yl)cyclopropane-1-carboxamide] |  |  |  |  |  |  |  |  | 7.00 to 7.30 | 3.72 | 7.30 to 8.00 | < 6.30 | < 6.30
20 | O=C(c1nc(NCc2cccc(Cl)c2)nc2ccsc12)N1CCC1 [Example Z121, Azetidin-1-yl(2-((3-chlorobenzyl)amino)thieno[3,2-d]pyrimidin-4-yl)methanone] | 249 | 85.1 |  |  | 7.30 to 8.00 |  | 48.6 | 6.30 to 7.00 |  |  |  |  | 
21 | C[C@H](Nc1nc(C(=O)N2CC(NC(=O)c3ccc(C(F)(F)F)o3)C2)c2sccc2n1)c1cncc(F)c1 [Example Z629, (S)—N-(1-(2-((1-(5-Fluoropyridin-3-yl)ethyl)amino)thieno[3,2-d]pyrimidine-4-carbonyl)azetidin-3-yl)-5-(trifluoromethyl)furan-2-carboxamide] |  |  |  |  |  |  |  |  | 7.30 to 8.00 | 2.40 | 7.30 to 8.00 | < 6.30 | < 6.30
